From publication PMC7745420 (ACS Omega, 2020)

Target: p97/VCP (Homo sapiens, UniProt P55072)
Test: ATPase assay on purified human p97/VCP
Format: biochemical

Sequence of p97/VCP (P55072 2-806): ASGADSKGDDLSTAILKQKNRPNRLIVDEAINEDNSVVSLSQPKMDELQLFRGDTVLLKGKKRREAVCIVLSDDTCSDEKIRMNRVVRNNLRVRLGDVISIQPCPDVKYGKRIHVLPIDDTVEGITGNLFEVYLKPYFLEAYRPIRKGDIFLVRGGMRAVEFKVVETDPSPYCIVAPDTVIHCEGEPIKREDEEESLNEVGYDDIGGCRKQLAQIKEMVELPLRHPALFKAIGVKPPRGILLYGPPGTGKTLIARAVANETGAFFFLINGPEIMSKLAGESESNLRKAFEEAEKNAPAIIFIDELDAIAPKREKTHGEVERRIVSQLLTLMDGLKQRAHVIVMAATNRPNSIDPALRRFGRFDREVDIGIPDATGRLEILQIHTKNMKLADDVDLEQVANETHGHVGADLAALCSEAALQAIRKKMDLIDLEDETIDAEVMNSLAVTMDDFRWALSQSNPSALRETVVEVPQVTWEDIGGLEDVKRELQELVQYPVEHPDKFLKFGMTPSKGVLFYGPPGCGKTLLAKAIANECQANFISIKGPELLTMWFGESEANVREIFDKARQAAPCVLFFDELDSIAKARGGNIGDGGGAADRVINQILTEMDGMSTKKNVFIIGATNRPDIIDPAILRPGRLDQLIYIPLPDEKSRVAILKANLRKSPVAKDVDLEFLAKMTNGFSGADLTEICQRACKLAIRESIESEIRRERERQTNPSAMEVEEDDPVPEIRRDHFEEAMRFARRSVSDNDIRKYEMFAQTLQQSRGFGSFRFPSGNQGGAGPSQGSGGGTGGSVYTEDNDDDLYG

NCCc1cn(-c2nc(NCc3ccccc3)c3ccccc3n2)c2ccccc12 [FQ393, 2-[3-(2-Aminoethyl)-1H-indol-1-yl]-N-benzylquinazolin-4-amine]
IC50: 900 ± 110 nM
